Calls of active or inactive are those of the source. The calls are words filed in the database; no cut-off is given here.
Assays:
[1] = Growth inhibition of human DU145/RC0.1 cells harboring TOP1 R364H mutant incubated for 72 hrs by MTT assay; format: functional; settings: DU-145, 72 h
[2] = Acute toxicity in ip dosed Kunming mouse assessed as mortality administrated for 7 days; format: organism-based; settings: in vivo, 168 h
HCT-116 [3] = experiment: Growth inhibition of human HCT116 cells expressing siTOP1 incubated for 72 hrs by MTT assay; format: functional; settings: HCT-116, 72 h
[4] = Half life in Sprague-Dawley rat at 1 mg/kg, iv measured for 0.083 to 4 hrs by LC-MS/MS analysis; format: ADME, organism-based; settings: in vivo
HCT-116 [5] = experiment: Antitumour activity against human HCT116 cells xenografted in athymic nude nu/nu mouse assessed as inhibition in tumor weight at 20 mg/kg administrated daily by caliper method relative to control; format: functional
[6] = molecular target: T1, DNA topoisomerase 1 (Homo sapiens) (UniProt P11387); experiment: Inhibition of TOP1 in human HCT116 cells assessed as induction of cellular TOP1cc formation incubated for 1 hr by chemiluminescence based assay; format: cell-based
T1 sequence (whole entry): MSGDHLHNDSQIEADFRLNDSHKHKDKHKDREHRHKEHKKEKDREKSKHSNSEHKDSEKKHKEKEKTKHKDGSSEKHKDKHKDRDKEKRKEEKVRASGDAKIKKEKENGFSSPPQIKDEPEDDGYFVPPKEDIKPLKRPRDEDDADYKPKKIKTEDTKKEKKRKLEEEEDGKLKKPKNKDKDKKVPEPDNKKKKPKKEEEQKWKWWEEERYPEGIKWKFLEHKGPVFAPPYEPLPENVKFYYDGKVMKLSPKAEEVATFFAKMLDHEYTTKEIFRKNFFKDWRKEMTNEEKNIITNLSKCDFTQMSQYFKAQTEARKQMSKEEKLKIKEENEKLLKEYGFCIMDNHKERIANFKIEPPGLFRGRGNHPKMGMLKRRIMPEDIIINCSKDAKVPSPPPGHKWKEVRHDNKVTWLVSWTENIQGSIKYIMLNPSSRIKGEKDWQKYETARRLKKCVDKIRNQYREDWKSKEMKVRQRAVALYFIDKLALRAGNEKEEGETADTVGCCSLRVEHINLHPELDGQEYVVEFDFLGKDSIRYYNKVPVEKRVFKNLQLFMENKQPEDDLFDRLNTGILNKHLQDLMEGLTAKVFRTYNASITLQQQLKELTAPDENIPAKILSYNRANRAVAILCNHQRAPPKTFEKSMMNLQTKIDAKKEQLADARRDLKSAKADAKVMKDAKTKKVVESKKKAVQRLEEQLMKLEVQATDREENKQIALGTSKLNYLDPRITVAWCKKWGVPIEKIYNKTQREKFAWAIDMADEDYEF

HCT-116 [7] = experiment: Induction of apoptosis in human HCT116 cells assessed as increase in apoptotic cells incubated for 24 hrs by FITC and PI staining based flow cytometric analysis; format: functional, cell-based
MCF7 [8] = experiment: Antitumour activity against human MCF7 cells xenografted in athymic nude nu/nu mouse assessed as inhibition in tumor weight at 20 mg/kg administrated daily by caliper method relative to control; format: functional
[9] = AUC (0 to t) in Sprague-Dawley rat at 5 mg/kg, ig measured for 0.083 to 4 hrs by LC-MS/MS analysis; format: ADME, organism-based; set-up: time upper 4 hr, dose 5 mg/kg, time lower 0.083 hr, route […]; settings: in vivo, po
[10] = MRT (0 to infinity) in Sprague-Dawley rat at 1 mg/kg, iv measured for 0.083 to 4 hrs by LC-MS/MS analysis; settings: in vivo
[11] = Acute toxicity in Kunming mouse assessed as animal survival at 122.9 mg/kg, ip administrated as single dose measured for 7 days post administration; format: organism-based; settings: in vivo
HCT-116 [12] = experiment: Antitumour activity against human HCT116 cells xenografted in ip dosed athymic nude nu/nu mouse assessed as reduction in tumor volume administrated daily by caliper method; format: functional, organism-based
[13] = molecular target: T1, DNA topoisomerase 1 (Homo sapiens); experiment: Inhibition of TOP1 in human HCT116 cells assessed as induction of cellular TOP1cc formation at 25 uM incubated for 1 hr by chemiluminescence based assay; format: cell-based
MCF7 [14] = experiment: Antitumour activity against human MCF7 cells xenografted in ip dosed athymic nude nu/nu mouse assessed as reduction in tumor volume administrated daily by caliper method; format: functional, organism-based
[15] = Cmax in Sprague-Dawley rat at 5 mg/kg, ig measured for 0.083 to 4 hrs by LC-MS/MS analysis; format: ADME, organism-based; set-up: dose 5 mg/kg, route […]; settings: in vivo, po
[16] = Solubility of the compound in DMSO; format: physicochemical
HCT-116 [17] = experiment: Antitumour activity against human HCT116 cells xenografted in athymic nude nu/nu mouse assessed as inhibition in tumor weight at 5 mg/kg administrated daily by caliper method relative to control; format: functional
MCF7 [18] = experiment: Antitumour activity against human MCF7 cells xenografted in athymic nude nu/nu mouse assessed as inhibition in tumor weight at 10 mg/kg administrated daily by caliper method relative to control; format: functional
[19] = Acute toxicity in Kunming mouse assessed as mortality at 153.6 to 240 mg/kg, ip administrated as single dose measured for 7 days post drug administration; format: organism-based; settings: in vivo, 168 h
[20] = molecular target: T1, DNA topoisomerase 1 (Homo sapiens); experiment: Inhibition of TOP1 in human HCT116 cells assessed as induction of DNA damage by measuring increase in gammaH2AX foci at 1 uM incubated for 3 hrs by DAPI staining based immunofluorescence microscopic method; format: cell-based
[21] = AUC (0 to infinity) in Sprague-Dawley rat at 1 mg/kg, iv measured for 0.083 to 4 hrs by LC-MS/MS analysis; format: ADME, organism-based; set-up: dose 1 mg/kg, route intravenous, time infinity; settings: in vivo
HCT-116 [22] = experiment: Antitumour activity against human HCT116 cells xenografted in athymic nude nu/nu mouse assessed as inhibition in tumor weight at 10 mg/kg administrated daily by caliper method relative to control; format: functional
MCF7 [23] = experiment: Antitumour activity against human MCF7 cells xenografted in athymic nude nu/nu mouse assessed as inhibition in tumor weight at 5 mg/kg administrated daily by caliper method relative to control; format: functional
[24] = Acute toxicity in Kunming mouse assessed as mortality at 300 mg/kg, ip administrated as single dose measured within 5 days after drug administration; format: organism-based; settings: in vivo, 120 h

CNCCn1c(=O)c2cc(OC)c(OC)cc2c2ccc3cc4c(cc3c21)OCO4
GI50 [1]: 430 nM | LD50 [2]: 192 mg/kg | GI50 (HCT-116 [3]): 320 nM | half-life [4]: 1.21 h | inhibition in vivo at 20 mg/kg (HCT-116 [5]): 76.9% | Activity [6]: Dose-dependent effect | Activity (HCT-116 [7]): Dose-dependent effect | inhibition in vivo at 20 mg/kg (MCF7 [8]): 71.8% | AUCt [9]: 48.3 ng·h/mL | MRT inf [10]: 1.46 h | survival at 168 h [11]: 100% | inhibition (HCT-116 [12]): Dose-dependent effect | Activity [13]: Active | inhibition (MCF7 [14]): Dose-dependent effect | Cmax [15]: 19 ng/mL | solubility [16]: Soluble | inhibition in vivo at 5 mg/kg (HCT-116 [17]): 49.3% | inhibition in vivo at 10 mg/kg (MCF7 [18]): 56.9% | Activity [19]: Toxic | Activity [20]: Active | AUC(0-inf) [21]: 49.5 ng·h/mL | inhibition in vivo at 10 mg/kg (HCT-116 [22]): 64.5% | inhibition in vivo at 5 mg/kg (MCF7 [23]): 44% | Activity [24]: Toxic
